Assay results as given in US12396458B2, “Fused ring substituted aromatic compound and preparation method therefor, herbicidal composition, and use thereof” (Qingdao Kingagroot Chemical Compound Co., Ltd., priority 2020, dated 2025).

Columns and labels:
Experiment in all cases: Weeding effect in post-emergence stage (greenhouse pot test)
Type in all cases: in vivo
Beckmannia syzigachne = settings: dose 15 g a.i./ha, 3 weeks after application, fresh weight control rate
Excerpt: (§1) The activity level criteria for plant damage (i.e., growth control rate) are as follows:
(§2) Level 5: growth control rate is above 85%; • Level 4: growth control rate is greater than or equal to 60% and less than 85%; • Level 3: growth control rate is greater than or equal to 40% and less than 60%; • Level 2: growth control rate is greater than or equal to 20% and less than 40%; • Level 1: growth control rate is greater than or equal to 5% and less than 20%; • Level 0: growth control rate is less than 5%.
(§3) The above growth control rates are fresh weight control rates.
(§4) Experiment on weeding effect in post-emergence stage:
(§5) Monocotyledonous and dicotyledonous weed seeds (Descurainia sophia, Capsella bursa-pastoris, Abutilon theophrasti, Galium aparine, Stellaria media, Lithospermum arvense, Rorippa indica, Alopecurus aequalis, Alopecurus japonicus, Eleusine indica, Beckmannia syzigachne, Sclerochloa dura, Phleum paniculatum, Veronica didyma Tenore, Bromus japonicus, Aegilops tauschii, Phalaris arundinacea, Amaranthus retrojlexus, Chenopodiaceae, Commelina communis, Sonchus arvensis, convolvulus arvensis, Cirsium setosum, Solanum nigrum, Acalypha australis, Digitaria sanguinalis, Echinochloa crusgalli, Setaria viridis, Setaria glauca, Leptochloa chinensis, Monochoria vaginalis, Sagittaria trifolia, Scirpus juncoides, Cyperus rotundus, Cyperus iria, Cyperus difformis, Fimbristylis, Portulaca oleracea, Xanthium sibiricum, Pharbitis nil, Conyza japonica, etc.) and major crop seeds (wheat, corn, rice, soybean, cotton, oilseed rape, millet, sorghum, potato, sesame, ricinus, etc.) were placed in plastic pots filled with soil, then covered with 0.5-2 cm of soil, allowed to grow in a good greenhouse environment. After 2 weeks of sowing, the test plants were treated in the 2-3 leaf stage. The tested compounds of the present invention were respectively dissolved in acetone, then added with Tween 80 and 1.5 liter/ha of emulsifiable concentrate of methyl oleate as synergist, diluted with a certain amount of water to obtain a solution with a certain concentration, and sprayed with a spray tower onto the plants. After the application, the plants were cultured for 3 weeks in the greenhouse, and then the experimental results of the weeding were counted. The doses of the used compounds were 500, 250, 125, 60, 15, 7.5 g a.i./ha, and the averages were obtained by repeating for three times.

Conyza japonica = settings: post-emergence, dose 15 g a.i./ha, 3 weeks after application, fresh weight control rate
Excerpt: as §1, §2, §3, §4, §5

Alopecurus japonicus = settings: dose 15 g a.i./ha, 3 weeks after application, fresh weight control rate
Excerpt: as §1, §2, §3, §4, §5

Capsella bursa-pastoris = settings: dose 15 g a.i./ha, 3 weeks after application, fresh weight control rate
Excerpt: as §1, §2, §3, §4, §5

| SMILES | Activity level (growth control rate), Beckmannia syzigachne (Beckmannia syzigachne) | Activity level (growth control rate), Conyza japonica (Conyza japonica) | Activity level (growth control rate), Alopecurus japonicus (Alopecurus japonicus) | Activity level (growth control rate), Capsella bursa-pastoris (Capsella bursa-pastoris) |
| --- | --- | --- | --- | --- |
| COC(=O)C12CCCC1C(c1cc(-n3c(=O)n(C)c(=S)n(C)c3=O)c(F)cc1Cl)=NO2 (stereo not shown) [Compound 2] | 5 (Level 5: growth control rate is above 85%) | 5 (Level 5: growth control rate is above 85%) | 5 (Level 5: growth control rate is above 85%) | 5 (Level 5: growth control rate is above 85%) |
| CCCOC(=O)C12CCCC1C(c1cc(-n3c(=O)n(C)c(=S)n(C)c3=O)c(F)cc1Cl)=NO2 (stereo not shown) [Compound 4] | 5 (Level 5: growth control rate is above 85%) | 4 (Level 4: growth control rate is greater than or equal to 60% and less than 85%) | 5 (Level 5: growth control rate is above 85%) | 5 (Level 5: growth control rate is above 85%) |
| C=CCOC(=O)C12CCCC1C(c1cc(-n3c(=O)n(C)c(=S)n(C)c3=O)c(F)cc1Cl)=NO2 (stereo not shown) [Compound 10] | 5 (Level 5: growth control rate is above 85%) | 4 (Level 4: growth control rate is greater than or equal to 60% and less than 85%) | 5 (Level 5: growth control rate is above 85%) | 5 (Level 5: growth control rate is above 85%) |
| C#CCOC(=O)C12CCCC1C(c1cc(-n3c(=O)n(C)c(=S)n(C)c3=O)c(F)cc1Cl)=NO2 (stereo not shown) [Compound 13] | 5 (Level 5: growth control rate is above 85%) | 4 (Level 4: growth control rate is greater than or equal to 60% and less than 85%) | 5 (Level 5: growth control rate is above 85%) | 5 (Level 5: growth control rate is above 85%) |
| Cn1c(=S)n(C)c(=O)n(-c2cc(C3=NOC4(C(=O)OCC5CCCO5)CCCC34)c(Cl)cc2F)c1=O (stereo not shown) [Compound 49] | 5 (Level 5: growth control rate is above 85%) | 4 (Level 4: growth control rate is greater than or equal to 60% and less than 85%) | 4 (Level 4: growth control rate is greater than or equal to 60% and less than 85%) | 5 (Level 5: growth control rate is above 85%) |
| Cn1c(=S)n(C)c(=O)n(-c2cc(C3=NOC4(C(=O)OCc5ccccc5)CCCC34)c(Cl)cc2F)c1=O (stereo not shown) [Compound 51] | 4 (Level 4: growth control rate is greater than or equal to 60% and less than 85%) | 4 (Level 4: growth control rate is greater than or equal to 60% and less than 85%) | 4 (Level 4: growth control rate is greater than or equal to 60% and less than 85%) | 5 (Level 5: growth control rate is above 85%) |
| CC(C)=NOC(=O)C12CCCC1C(c1cc(-n3c(=O)n(C)c(=S)n(C)c3=O)c(F)cc1Cl)=NO2 (stereo not shown) [Compound 66] | 4 (Level 4: growth control rate is greater than or equal to 60% and less than 85%) | 4 (Level 4: growth control rate is greater than or equal to 60% and less than 85%) | 5 (Level 5: growth control rate is above 85%) | 5 (Level 5: growth control rate is above 85%) |
| COC(=O)C12CCCC1C(c1cc(-n3c(=O)cc(C(F)(F)F)n(C)c3=O)c(F)cc1Br)=NO2 (stereo not shown) [Compound 210] | 5 (Level 5: growth control rate is above 85%) | 5 (Level 5: growth control rate is above 85%) | 5 (Level 5: growth control rate is above 85%) | 5 (Level 5: growth control rate is above 85%) |
| Cn1c(C(F)(F)F)cc(=O)n(-c2cc(C3=NOC4(C(=O)O)CCCC34)c(Cl)cc2F)c1=O (stereo not shown) [Compound 213] | 5 (Level 5: growth control rate is above 85%) | 4 (Level 4: growth control rate is greater than or equal to 60% and less than 85%) | 5 (Level 5: growth control rate is above 85%) | 5 (Level 5: growth control rate is above 85%) |
| COC(=O)C12CCCC1C(c1cc(-n3c(=O)cc(C(F)(F)F)n(C)c3=O)c(F)cc1Cl)=NO2 (stereo not shown) [Compound 214] | 5 (Level 5: growth control rate is above 85%) | 5 (Level 5: growth control rate is above 85%) | 5 (Level 5: growth control rate is above 85%) | 5 (Level 5: growth control rate is above 85%) |
| CCOC(=O)C12CCCC1C(c1cc(-n3c(=O)cc(C(F)(F)F)n(C)c3=O)c(F)cc1Cl)=NO2 (stereo not shown) [Compound 215] | 5 (Level 5: growth control rate is above 85%) | 4 (Level 4: growth control rate is greater than or equal to 60% and less than 85%) | 5 (Level 5: growth control rate is above 85%) | 5 (Level 5: growth control rate is above 85%) |
| CCCOC(=O)C12CCCC1C(c1cc(-n3c(=O)cc(C(F)(F)F)n(C)c3=O)c(F)cc1Cl)=NO2 (stereo not shown) [Compound 216] | 5 (Level 5: growth control rate is above 85%) | 4 (Level 4: growth control rate is greater than or equal to 60% and less than 85%) | 5 (Level 5: growth control rate is above 85%) | 5 (Level 5: growth control rate is above 85%) |
| CC(C)OC(=O)C12CCCC1C(c1cc(-n3c(=O)cc(C(F)(F)F)n(C)c3=O)c(F)cc1Cl)=NO2 (stereo not shown) [Compound 217] | 5 (Level 5: growth control rate is above 85%) | 4 (Level 4: growth control rate is greater than or equal to 60% and less than 85%) | 5 (Level 5: growth control rate is above 85%) | 5 (Level 5: growth control rate is above 85%) |
| C=CCOC(=O)C12CCCC1C(c1cc(-n3c(=O)cc(C(F)(F)F)n(C)c3=O)c(F)cc1Cl)=NO2 (stereo not shown) [Compound 222] | 5 (Level 5: growth control rate is above 85%) | 4 (Level 4: growth control rate is greater than or equal to 60% and less than 85%) | 5 (Level 5: growth control rate is above 85%) | 5 (Level 5: growth control rate is above 85%) |
| C#CCOC(=O)C12CCCC1C(c1cc(-n3c(=O)cc(C(F)(F)F)n(C)c3=O)c(F)cc1Cl)=NO2 (stereo not shown) [Compound 225] | 5 (Level 5: growth control rate is above 85%) | 4 (Level 4: growth control rate is greater than or equal to 60% and less than 85%) | 5 (Level 5: growth control rate is above 85%) | 5 (Level 5: growth control rate is above 85%) |
| Cn1c(C(F)(F)F)cc(=O)n(-c2cc(C3=NOC4(C(=O)OCCF)CCCC34)c(Cl)cc2F)c1=O (stereo not shown) [Compound 231] | 5 (Level 5: growth control rate is above 85%) | 4 (Level 4: growth control rate is greater than or equal to 60% and less than 85%) | 5 (Level 5: growth control rate is above 85%) | 5 (Level 5: growth control rate is above 85%) |
| COC(=O)C12CCCC1C(c1cc(/N=c3\sc(=O)n4n3CCCC4)c(F)cc1Cl)=NO2 (stereo not shown) [Compound 575] | – | 4 (Level 4: growth control rate is greater than or equal to 60% and less than 85%) | 4 (Level 4: growth control rate is greater than or equal to 60% and less than 85%) | 5 (Level 5: growth control rate is above 85%) |
| COC(=O)C12CCCC1C(c1cc(-c3nnc(C(F)(F)F)cc3OC)c(F)cc1Cl)=NO2 (stereo not shown) [Compound 578] | – | 4 (Level 4: growth control rate is greater than or equal to 60% and less than 85%) | 5 (Level 5: growth control rate is above 85%) | 5 (Level 5: growth control rate is above 85%) |
